Source: PMC2779801, “Comparative biochemical analysis of HIV-1 subtype B and C integrase enzymes” (Retrovirology, 2009)
Where two headings read alike, the source gives them in different places.

What was measured:
[1] = target: T1, HIV-1 subtype C integrase (Human immunodeficiency virus type 1, UniProt Q9QN97, C991S/F896H); conditions: for Inhibition of disintegration: increasing inhibitor concentration
Description: (§1) Oligonucleotide-based assays were performed to measure integrase enzymatic activities. All oligonucleotide probes were gel purified and phenol-chloroform extracted. INT1 oligonucleotide was radiolabeled using the T4 Polynucleotide Kinase kit (Ambion) with [γ-^32P] ATP (Perkin Elmer). Unincorporated nucleotides were discarded utilizing 'NucAway columns' (Ambion). A double stranded oligonucleotide substrate was obtained by mixing equal concentrations of INT1 and INT2, heating to 95°C and stepwise cooling to 37°C in 100 mM NaCl. The oligonucleotides T35 and SK70 were annealed to form a second double stranded oligonucleotide. INT1/2 mimicked the HIV-1 U5 long terminal repeat (LTR) and acted as a substrate for 3' processing. T35/SK70 acted as a site for integration of the processed INT1/2 fragment and mimicked host DNA.
Concentrations of enzymes used in the following reactions were optimized in a series of preliminary experiments. Integrase reactions were performed in a buffer containing 20 mM Hepes (pH 7.5), 30 mM NaCl, 1 mM dithiothreitol, 125 μM ZnCl2 and 0.125 pmol dsDNA substrate (INT1/2) in a final volume of 10 μl. Recombinant integrase (3.1 μM), and varying concentrations of integrase inhibitors or water/DMSO as control, were mixed and preincubated at 37°C for 15 min. 3' processing reactions were initiated by addition of 7.5 mM of MnCl2 and incubated at 37°C for 3 min unless otherwise indicated. For strand transfer reactions, 1.25 pmol of dsDNA template (T35/SK70) were added and the reaction mixture was further incubated at 37°C for 1 hour unless otherwise indicated. Reactions were stopped by adding 5 times the volume of gel loading dye (formamide containing 1% SDS, 0.25% bromophenol blue, and 0.25% xylene cyanol) and heating to 95°C. Reaction products were separated on 6% acrylamide, 7 M urea sequencing gels. Gels were dried and exposed utilizing phosphorimager screens (GE Healthcare) and scanned in a Molecular Dynamics Typhoon Phosphorimager (GE Healthcare). Product analysis and quantification were conducted using ImageQuant and GraphPad Prism 4.0 software. Quantification of standard error of the mean (SEM) was performed with GraphPad Prism 4.0 software.

[2] = target: T2, HIV-1 subtype B integrase (Human immunodeficiency virus type 1, UniProt P12497); experiment: Disintegration assay; assay type: biochemical; conditions: increasing inhibitor concentration
From the text: Oligonucleotides were purchased from Invitrogen and then PAGE purified.
ATP (Perkin Elmer). Unincorporated nucleotides were discarded utilizing 'NucAway columns' (Ambion).

Subtype B virus 5331 = experiment: Cell culture phenotypic drug susceptibility assay (p24 antigen) in cord blood mononuclear cells; assay type: cell-based, HIV-1; conditions: read-out: EC50 Values
Description: (§2) Recombinant viruses (subtype B) (pNL4-3 and IIIb) and viruses obtained from either our primary HIV infection cohort or from long-term infected patients (subtype B and C) were amplified as previously described. Drug susceptibility was measured in cell culture-based phenotypic assays using cord blood mononuclear cells to determine the extent of […] HIV replication blockage by integrase inhibitors.

Subtype C virus BG-05 = experiment: as above; assay type: cell-based, HIV-1
Description: as §2

Subtype C virus 96USNG31 = experiment: as above; assay type: cell-based, HIV-1
Description: as §2

Subtype B virus pNL4-3 = experiment: as above; assay type: cell-based, HIV-1; conditions: read-out: EC50 Values
Description: as §2

Subtype B virus IIIb = experiment: as above; assay type: cell-based, HIV-1; conditions: read-out: EC50 Values
Description: as §2

Subtype C virus HB-1 = experiment: as above; assay type: cell-based, HIV-1
Description: as §2

Subtype C virus 4742 = experiment: as above; assay type: cell-based, HIV-1
Description: as §2

[3] = target: T2, HIV-1 subtype B integrase; assay type: biochemical; conditions: Mg2+-based microtiter plate assay, 95% confidence interval in brackets, read-out: Strand Transfer IC50
Description: A microtiter plate assay was utilized to evaluate MgCl2-mediated strand transfer as previously described [24, 31]. Briefly, biotinylated oligonucleotides mimicking LTR donor DNA (5'-biotin-[sequence] and 5'-[sequence]) were immobilized onto black-colour Reacti-Bind Streptavidin-coated plates (ThermoFisher). 313 nM recombinant enzyme was bound to donor DNA on the plates in the presence of 25 mM MnCl2 and the plates were then washed to remove excess unbound enzyme. […] Covalently linked target DNA was detected through use of an anti-FITC antibody conjugated to alkaline phosphatase (Roche) and a chemiluminescence substrate (CSPD Sapphire II, Applied Biosystems). Integrase inhibitors were added at increasing concentrations shortly before the addition of target DNA. Strand transfer was evaluated by chemiluminescence.

[4] = target: T2, HIV-1 subtype B integrase; assay type: biochemical; conditions: Mn2+-based assay, 95% confidence interval in brackets
Description: as §1
Concentrations of enzymes used in the following reactions were optimized in a series of preliminary experiments. Integrase reactions were performed in a buffer containing 20 mM Hepes (pH 7.5), 30 mM NaCl, 1 mM dithiothreitol, 125 μM ZnCl2 and 0.125 pmol dsDNA substrate (INT1/2) in a final volume of 10 μl. […] Product analysis and quantification were conducted using ImageQuant and GraphPad Prism 4.0 software. Quantification of standard error of the mean (SEM) was performed with GraphPad Prism 4.0 software.

[5] = target: T1, HIV-1 subtype C integrase; conditions: read-out: Strand Transfer IC50, Mg2+-based microtiter plate assay, 95% confidence interval in brackets
Description: A microtiter plate assay was utilized to evaluate MgCl2-mediated strand transfer as previously described. Briefly, biotinylated oligonucleotides mimicking LTR donor DNA (5'-biotin-[…] and 5'-[…]) were immobilized onto black-colour Reacti-Bind Streptavidin-coated plates (ThermoFisher). 313 nM recombinant enzyme was bound to donor DNA on the plates in the presence of 25 mM […] and the plates were then washed to remove excess unbound enzyme. […] Covalently linked target DNA was detected through use of an anti-FITC antibody conjugated to alkaline phosphatase (Roche) and a chemiluminescence substrate (CSPD Sapphire II, Applied Biosystems). Integrase inhibitors were added at increasing concentrations shortly before the addition of target DNA. Strand transfer was evaluated by chemiluminescence.

Subtype B virus BK 132 = experiment: Cell culture phenotypic drug susceptibility assay (p24 antigen) in cord blood mononuclear cells; assay type: cell-based, HIV-1; conditions: read-out: EC50 Values
Description: as §2

Subtype C virus Mole 03 = experiment: as above; assay type: cell-based, HIV-1
Description: as §2

Subtype B virus 5326 = experiment: as above; assay type: cell-based, HIV-1; conditions: read-out: EC50 Values
Description: as §2

[6] = Human immunodeficiency virus 1, read-out: EC50 Values

| SMILES | Inhibition of disintegration [1] | Inhibition of disintegration [2] | EC50 (Subtype B virus 5331) | EC50 (Subtype C virus BG-05; [6]) | EC50 (Subtype C virus 96USNG31; [6]) | EC50 (Subtype B virus pNL4-3) | EC50 (Subtype B virus IIIb; IIIB) | EC50 (Subtype C virus HB-1; [6]) | EC50 (Subtype C virus 4742; [6]) | further results |
| --- | --- | --- | --- | --- | --- | --- | --- | --- | --- | --- |
| COc1cc2c(cc1Cc1cccc(Cl)c1F)c(=O)c(C(=O)O)cn2[C@H](CO)C(C)C [EVG, elvitegravir] | neither RAL nor EVG had much effect | neither RAL nor EVG had much effect | 0.1 ± 0.07 nM | 0.8 ± 0.04 nM | 0.8 ± 0.6 nM | 0.9 ± 0.3 nM | 1.8 ± 0.6 nM | 0.1 ± 0.01 nM | 2.2 ± 0.2 nM | – |
| CCN1C[C@H](C)n2c(c(O)c3c(=O)n(Cc4ccc(F)c(Cl)c4)nc(C(=O)NC)c32)C1=O [MK-2048] | inhibited by high concentrations of MK-2048 | inhibited by high concentrations of MK-2048 | – | – | – | – | – | – | – | IC50 [3]: 4.7 nM; IC50 ([1]; read-out: 3' Processing IC50, Mn2+-based assay, 95% confidence interval in brackets): 190 nM; IC50 ([1]; read-out: Strand Transfer IC50, Mn2+-based assay, 95% confidence interval in brackets): 80 nM; IC50 ([4]; read-out: 3' Processing IC50): 580 nM; IC50 ([4]; read-out: Strand Transfer IC50): 75 nM; IC50 [5]: 2.3 nM; EC50 (Subtype B virus 5331; Subtype B virus 5331, cord blood mononuclear cells, p24 antigen): 1 ± 0.2 nM; EC50 (Subtype C virus BG-05; Subtype C virus BG-05, cord blood mononuclear cells, p24 antigen, read-out: EC50 Values): 2.2 ± 0.7 nM; EC50 (Subtype B virus BK 132; Subtype B virus BK 132, cord blood mononuclear cells, p24 antigen): 14.8 ± 3.2 nM; EC50 (Subtype C virus 96USNG31; Subtype C virus 96USNG31, cord blood mononuclear cells, p24 antigen, read-out: EC50 Values): 1.5 ± 0.1 nM; EC50 (Subtype B virus pNL4-3; Subtype B virus pNL4-3, cord blood mononuclear cells, p24 antigen): 2.7 ± 0.9 nM; EC50 (Subtype B virus IIIb; Subtype B virus IIIb, cord blood mononuclear cells, p24 antigen): 0.3 ± 0.1 nM; EC50 (Subtype C virus Mole 03; Subtype C virus Mole 03, cord blood mononuclear cells, p24 antigen, read-out: EC50 Values): 1.1 ± 0.1 nM; EC50 (Subtype C virus HB-1; Subtype C virus HB-1, cord blood mononuclear cells, p24 antigen, read-out: EC50 Values): 0.7 ± 0.5 nM; EC50 (Subtype B virus 5326; Subtype B virus 5326, cord blood mononuclear cells, p24 antigen): 7.2 ± 2.1 nM; EC50 (Subtype C virus 4742; Subtype C virus 4742, cord blood mononuclear cells, p24 antigen, read-out: EC50 Values): 3.3 ± 2 nM |
| Cc1nnc(C(=O)NC(C)(C)c2nc(C(=O)NCc3ccc(F)cc3)c(O)c(=O)n2C)o1 [RAL, raltegravir] | neither RAL nor EVG had much effect | neither RAL nor EVG had much effect | 5.6 ± 2.2 nM | 6.7 ± 0.9 nM | 8.7 ± 0.7 nM | 8.2 ± 1.3 nM | 1.2 ± 0.5 nM | 1.5 ± 0.4 nM | 20.6 ± 9 nM | EC50 (Subtype B virus BK 132): 30.1 ± 5.4 nM; EC50 (Subtype C virus Mole 03; [6]): 4.6 ± 0.2 nM; EC50 (Subtype B virus 5326): 24.3 ± 2.5 nM |
